≈ marks a conversion by molar mass, not a printed value.
Conditions: buffer; pH 7.4; 200.0 µM

| Compound | solubility kinetic |
| --- | --- |
| CCCCSCCCNC(=O)Nc1ccc(CC)cc1 | 3.6 µg/mL (≈ 12.2 µM) |
| O=C(Oc1ccc(F)cc1)c1cccnc1 | 26.7 µg/mL (≈ 123 µM) |
| O=C(Nc1ccc(Br)cn1)c1cccc2ccccc12 | 0.5 µg/mL (≈ 1.53 µM) |
| COc1ccccc1OCCCOc1cccc(/C=C2\SC(=O)NC2=O)c1 | < 0.8 µg/mL |
| COc1ccc(/C=N/NC(=O)c2cc[n+]([O-])cc2)cc1 | > 40.7 µg/mL |
| c1ccc(-n2ccnc2)cc1 | 19.7 µg/mL (≈ 137 µM) |
| CC(C(=O)Nc1ccc(F)c(F)c1F)N(C)CCOc1ccccc1 (stereo unspecified) | 13.6 µg/mL (≈ 38.6 µM) |
| Cl.FC(F)Sc1ccc(NC2=NCCCCC2)cc1 | 45 µg/mL |
| CCC(=O)c1cn(Cc2ccccc2)c2ccccc12 | 1 µg/mL (≈ 3.8 µM) |
| Cc1cc(C)c(C(=O)N2CCC3(CC2)OCCO3)c(C)c1 | > 43.4 µg/mL |
| O=C1C(Cc2c[nH]c3ccccc23)NC(=S)N1C1CCCCC1 (stereo unspecified) | 49 µg/mL (≈ 150 µM) |
| CCN(C(=O)COC(=O)CNC(=O)c1ccc(Cl)cc1Cl)c1c(N)n(Cc2ccccc2)c(=O)[nH]c1=O | > 82.3 µg/mL |
| CCc1ccc(N2CN(Cc3ccco3)CNC2=S)cc1 | 11.9 µg/mL (≈ 39.5 µM) |
| COc1ccc(CCNC(=O)C(C)OC(=O)c2cccs2)cc1OC (stereo unspecified) | 49 µg/mL (≈ 135 µM) |
| Cc1ccc2[nH]c(C)c(CCNC(=O)NC3CCCCC3)c2c1 | 1 µg/mL (≈ 3.19 µM) |
| O=C(c1cc2cc(Cl)ccc2[nH]1)N1CCC2(CC1)OCCO2 | 16 µg/mL (≈ 49.9 µM) |
| O=C(COC(=O)c1cccnc1Cl)Nc1cccc(S(=O)(=O)N2CCOCC2)c1 | > 66 µg/mL |
| CC(C)c1nc2sc3c(SCC(N)=O)ncnc3c2c2c1CCC2 | 0.5 µg/mL (≈ 1.39 µM) |
| CN(Cc1ccccc1)C(=O)COc1ccc(Br)cc1Cl | 12.6 µg/mL (≈ 34.2 µM) |
| S=C(Nc1ccccc1)N1CCN(C/C=C/c2ccccc2)CC1 | > 50.6 µg/mL |
| CC(C)N(Cc1ccccc1)C(=O)CN1c2cccc3cccc(c23)S1(=O)=O | 11 µg/mL (≈ 27.9 µM) |
| COCCCNc1nc(N)c([N+](=O)[O-])c(N2CCCCCC2)n1 | 47.4 µg/mL (≈ 146 µM) |
| Cc1cc(-c2nc3ccccc3c(=O)o2)ccc1[N+](=O)[O-] | < 0.3 µg/mL |
| c1ccc(Cc2nc3ccccc3[nH]2)cc1 | > 31.2 µg/mL |
| Cc1cc(Oc2ccc(N)cn2)ccc1Cl | 30.8 µg/mL (≈ 131 µM) |

| Compound | solubility kinetic |
| --- | --- |
| Cc1occc1C(=O)Nc1cccc(S(=O)(=O)N2CCOCC2)c1 | 52.2 µg/mL (≈ 149 µM) |
| CS(=O)(=O)Nc1ccc(S(=O)(=O)N2CCCCCC2)cc1 | 48.3 µg/mL (≈ 145 µM) |
| O=C(N[C@@H](Cc1ccccc1)C(=O)OCc1ccccc1)c1ccco1 | 32.4 µg/mL (≈ 92.7 µM) |
| COC(=O)/C=C1\N/C(=N\c2nc(C)cc(C)n2)N(c2ccc(Cl)cc2)C1=O | 57.6 µg/mL (≈ 149 µM) |
| O=C(O)CNC(=O)C(c1ccccc1)c1ccccc1 | > 40.4 µg/mL |
| CCOC(=O)CNC(=O)CN1CCC(c2nc3ccccc3[nH]2)CC1 | > 51.7 µg/mL |
| CCC(=O)OCC(=O)N=c1sccn1Cc1ccc(C)cc1 | 36.4 µg/mL (≈ 114 µM) |
| CCCCOc1ccccc1C1NC(=O)CCC1[N+](=O)[O-] (stereo unspecified) | > 43.9 µg/mL |
| CN(C)c1ncc(S(=O)(=O)c2ccccc2)c(=O)[nH]1 | > 41.9 µg/mL |
| CCOC(=O)C1=C(c2ccccc2)NC(=O)NC1c1ccsc1 (stereo unspecified) | 43.9 µg/mL (≈ 134 µM) |
| Cc1ccc(SCc2cn3c(C)cc(C)nc3n2)cc1 | > 42.5 µg/mL |
| Cc1cc(C)c(NC(=O)C2CCCO2)c(C)c1 (stereo unspecified) | > 35 µg/mL |
| O=C(Nc1ccc(F)cc1)C1COc2ccccc2O1 (stereo unspecified) | 39.8 µg/mL (≈ 146 µM) |
| S=c1[nH]c2cc3c(cc2[nH]1)OCCO3 | 19.7 µg/mL (≈ 94.6 µM) |
| Oc1ccc2ccccc2c1CNc1ccc(Br)cn1 | 1.9 µg/mL (≈ 5.77 µM) |
| C/C(=C/c1ccccc1)C(=O)N1CCN(c2ccccc2)CC1 | 37.1 µg/mL (≈ 121 µM) |
| Cc1ccc(C2N=C(N)Nc3nc(=O)c4ccccc4n32)cc1 (stereo unspecified) | 3.1 µg/mL (≈ 10.2 µM) |
| Cc1cc(NC(=O)NCC(F)(F)F)no1 | > 33.5 µg/mL |
| COc1cccc2cc(C(=O)NCCc3ccccc3)oc12 | 26.9 µg/mL (≈ 91.1 µM) |
| Cc1cccc(NC(=O)C(C)N2CC=C(c3ccccc3)CC2)c1 (stereo unspecified) | 2.9 µg/mL (≈ 9.05 µM) |
| O=c1ccc2cc3c([nH]c4ccc(Br)cc43)oc-2c1O | > 49.5 µg/mL |
| COCCSc1ccccc1C(=O)Nc1cc(C)cc(C)c1 | 41.2 µg/mL (≈ 131 µM) |
| CCOc1ccc(-c2cnc3n2CCCCC3)cc1 | 32 µg/mL (≈ 125 µM) |
| Cc1ccc(S(=O)(=O)NCC(=O)OCC(=O)Nc2cccc(S(=O)(=O)N3CCOCC3)c2)cc1 | > 76.7 µg/mL |
| CSc1ncccc1C(=O)OCC(=O)c1ccc(C)s1 | 3.5 µg/mL (≈ 11.4 µM) |

| Compound | solubility kinetic |
| --- | --- |
| O=C(COC(=O)c1c(Cl)cccc1Cl)NC1CCCCC1 | > 49.5 µg/mL |
| O=C(CN1C(=O)c2ccccc2S1(=O)=O)c1ccccc1F | 17.8 µg/mL (≈ 55.7 µM) |
| COc1ccc(S(=O)(=O)N2CCC(C(=O)NC3CC3)CC2)cc1 | > 50.8 µg/mL |
| Cc1c[n+](CC(=O)c2ccccc2)c(C)cn1.[Br-] | 27 µg/mL |
| O=C1C2C3C=CC(CC3)C2C(=O)N1c1ccc(Cl)cc1 (stereo unspecified) | < 0.6 µg/mL |
| O=C(NCc1ccc(F)cc1)Nc1cccc([N+](=O)[O-])c1 | 1 µg/mL (≈ 3.46 µM) |
| Cc1nc(NC(=O)c2ccccc2O)sc1C | 10.2 µg/mL (≈ 41.1 µM) |
| CC(=O)c1ccc(NC(=O)CCc2ccc(C)o2)cc1 | 36.7 µg/mL (≈ 135 µM) |
| COc1ccc(NC(=O)CCC(=O)NCc2ccco2)c([N+](=O)[O-])c1 | > 52.1 µg/mL |
| Cc1occc1C(=O)N(C)Cc1nc(-c2ccccc2)no1 | 40.9 µg/mL (≈ 138 µM) |
| CN(CCN1CCOCC1)Cc1nc(-c2ccc(Cl)cc2)no1 | 38.1 µg/mL (≈ 113 µM) |
| Cc1cc(NC(=O)CSc2nnc(C)o2)no1 | > 38.1 µg/mL |
| CCCNC(=O)c1ccc(COc2ccc(Cl)cc2)o1 | 33 µg/mL (≈ 112 µM) |
| O=C(CCn1c(=O)sc2ccccc21)NC1CCCCC1 | 27.4 µg/mL (≈ 90 µM) |
| N#CC(C#N)=C1NC(N)=C(C#N)C(c2ccccc2)=C1C#N | > 42.6 µg/mL |
| CC(NCc1ccccc1O)C12CC3CC(CC(C3)C1)C2.Cl (stereo unspecified) | 41.9 µg/mL |
| Cc1ccsc1C(=O)NC(C)c1ccccc1 (stereo unspecified) | > 36.8 µg/mL |
| O=c1cc(CSc2ccccc2)[nH]c2ccccc12 | 39.7 µg/mL (≈ 148 µM) |
| CC1=CC(C)C(C(=O)O)C(C(=O)N2CCN(C)CC2)C1 (stereo unspecified) | > 42.1 µg/mL |
| CCNc1ccc(C(=O)OCC(=O)N2CCCC2)cc1[N+](=O)[O-] | 43.9 µg/mL (≈ 137 µM) |
| CC(C)(C)C(=O)Nc1ccc(-c2cc3cc(Cl)ccc3o2)cc1 | 0.8 µg/mL (≈ 2.44 µM) |
| CCOCC(=O)N1CCN(Cc2ccc3c(c2)OCO3)CC1 | > 46 µg/mL |
| CC1CCCC(C)N1C(=O)COC(=O)CNC(=O)c1ccccc1 (stereo unspecified) | > 49.9 µg/mL |
| COc1cc(F)ccc1S(=O)(=O)NCc1cccnc1 | > 44.4 µg/mL |
| COc1ccc(NC(=S)N2CCCC2)cc1OC | > 40 µg/mL |

| Compound | solubility kinetic |
| --- | --- |
| O=S(=O)(Nc1ncccn1)c1cc(Cl)ccc1Cl | > 45.6 µg/mL |
| O=c1c2ccccc2nc(/C=C/c2ccc(Cl)cc2)n1CCO | 1.3 µg/mL (≈ 3.98 µM) |
| COc1ccc(-n2nc(C(=O)N(C)C)nc2-c2ccccc2)cc1 | > 48.4 µg/mL |
| O=C(Nc1ccccc1)Oc1ccccc1N1CCOCC1 | 31.9 µg/mL (≈ 107 µM) |
| O=C(N1CCN(Cc2ccc3c(c2)OCO3)CC1)C(Cl)(Cl)Cl | 37.6 µg/mL (≈ 103 µM) |
| CCCCOc1cc(C(=O)OCCN(CC)CC)ccc1N | 42.7 µg/mL (≈ 138 µM) |
| CC(=O)/C(=C\N(C)C)Sc1ccc(Cl)cc1 | 17.6 µg/mL (≈ 68.8 µM) |
| CCCCOc1ccc(OCCNC(=O)c2ccco2)cc1 | 22.5 µg/mL (≈ 74.2 µM) |
| CCNc1nc(NC(C)(C)C)nc(SC)n1 | 35.9 µg/mL (≈ 149 µM) |
| Cc1cc(C)cc(NC(=O)NC2CCCCCCC2)c1 | 1 µg/mL (≈ 3.64 µM) |
| N/C(=N\O)c1ccccc1-n1cccc1 | > 30.2 µg/mL |
| N#Cc1ccc(C(=O)OCC(=O)NC2CCCC2)cc1 | 39 µg/mL (≈ 143 µM) |
| N#Cc1cnc(SCC(=O)N2CCCC2)nc1N | > 39.5 µg/mL |
| Cc1ccc(S(=O)(=O)NCCOc2nc(N(C)C)nc(N(C)C)n2)cc1 | 52.8 µg/mL (≈ 139 µM) |
| Cc1cccc(C)c1N1C(=O)CC(N2CCSCC2)C1=O (stereo unspecified) | > 45.7 µg/mL |
| COC(=O)c1cc(S(=O)(=O)N(C)C2CCCCC2)c[nH]1 | > 45.1 µg/mL |
| CCC(Oc1ccccc1)C(=O)Nc1ccccc1N1CCCCC1 (stereo unspecified) | 0.7 µg/mL (≈ 2.07 µM) |
| O=C(COC(=O)/C=C/c1ccccc1Cl)NCC1CCCO1 (stereo unspecified) | 31.9 µg/mL (≈ 98.5 µM) |
| O=C(O)c1ccc2[nH]c3c(c2c1)CCCC3 | > 32.3 µg/mL |
| COc1ccc(NC(=S)NC2CC3CCCC(C2)N3C2CC2)cc1 (stereo unspecified) | > 51.8 µg/mL |
| CCC1CCCCN1C(=O)COC(=O)c1cccs1 (stereo unspecified) | > 42.2 µg/mL |
| COc1ccc2c(c1)c(C(=O)C(C)N1CCCCC1)c(C)n2C (stereo unspecified) | < 0.3 µg/mL |
| O=C(COC(=O)c1cc(=O)[nH]c2ccccc12)NC1CCCCC1 | 4.7 µg/mL (≈ 14.3 µM) |
| Cc1nc(NCc2ccccc2)sc1C(=O)Nc1ccccc1 | 0.8 µg/mL (≈ 2.47 µM) |
| CC(C)(C)C1CCC(C(=O)Nc2cccnc2)CC1 (stereo unspecified) | 6.3 µg/mL (≈ 24.2 µM) |

| Compound | solubility kinetic |
| --- | --- |
| O=C(CCC(=O)Nc1ccccc1)N/N=C/c1cccnc1 | > 44.4 µg/mL |
| OC(CNCc1ccc2c(c1)OCO2)COc1ccccc1 (stereo unspecified) | > 45.2 µg/mL |
| Cc1ccn2cc(-c3ccc(O)c(O)c3)nc2c1.Cl | 17.8 µg/mL |
| COc1ccc(NS(=O)(=O)c2cn(C)c(=O)n(C)c2=O)c(OC)c1 | > 53.3 µg/mL |
| O=C(NCCN1CCOCC1)c1cc(Br)ccc1Cl | > 52.1 µg/mL |
| COc1cccc(N2CC(C)Cn3c2nc2c3c(=O)[nH]c(=O)n2C)c1 (stereo unspecified) | 22.7 µg/mL (≈ 66.5 µM) |
| Cc1cc(NCc2cccnc2)no1 | 28 µg/mL (≈ 148 µM) |
| CN(C1CCCCC1)S(=O)(=O)c1ccc(=S)[nH]c1 | 22.8 µg/mL (≈ 79.6 µM) |
| C=C(C)c1cccc(C(C)(C)NC(=O)N2CCC(C(N)=O)CC2)c1 | > 49.4 µg/mL |
| Cl.Nc1ccc(CCN2CCCC2)cc1 | 34.7 µg/mL |
| CCn1c(C)c(C)c2cc(C(=O)NCCc3ccco3)ccc21 | 24.4 µg/mL (≈ 78.6 µM) |
| COc1cccc(CNCCO)c1OCc1ccc(Cl)cc1.Cl | > 53.7 µg/mL |
| Cc1ccc(S(=O)(=O)CC(=O)Nc2nc3ccccc3s2)cc1 | 1.3 µg/mL (≈ 3.75 µM) |
| COc1cccc(NC(=O)CN2C(=O)NC(C)(CC(C)C)C2=O)c1 (stereo unspecified) | > 50 µg/mL |
| CCCCn1c(N)c(N(CC(C)C)C(=O)c2cnccn2)c(=O)[nH]c1=O | 53.9 µg/mL (≈ 150 µM) |
| Cc1ccsc1C(=O)OCC(=O)Nc1ccc(Cl)cn1 | 14.7 µg/mL (≈ 47.3 µM) |
| Cc1ccc(C(=O)COC(=O)c2cc(=O)[nH]c3ccccc23)cc1 | 1.1 µg/mL (≈ 3.42 µM) |
| NC(=S)Nc1ccc(C(F)(F)F)cc1Cl | 33.5 µg/mL (≈ 132 µM) |
| CCOc1ccc(C(=O)N2CCN(c3cccc(Cl)c3)CC2)cc1 | 14.3 µg/mL (≈ 41.5 µM) |
| COc1ccc2[nH]cc(C(=O)CN3CC(C)CC(C)C3)c2c1 (stereo unspecified) | > 45.1 µg/mL |
| CC(NC(=O)c1ccccc1Cl)c1ccc(-n2ccnc2)cc1 (stereo unspecified) | > 48.9 µg/mL |
